We go through 33 compounds from US11053234B2 (GlaxoSmithKline Intellectual Property Development Limited, priority 2016, dated 2021).

The assay concerns the target T1, haematopoietic prostaglandin D synthase (H-PGDS) (Homo sapiens, UniProt O60760).
T1 construct: Full length human H-PGDS cDNA (Invitrogen Ultimate ORF 10H13026) was amplified by PCR; 6-His (N); TEV protease cleavage site (N); made in house; host or cells: E. coli BL21 (DE3*), vector pET22b+
Nature of the assay: H-PGDS RapidFire high throughput mass spectrometry assay (conversion of PGH2 to PGD2). The assay is classed as biochemical. The conditions noted are these: 10 nM H-PGDS, PGH2 formed in situ by COX-2 from arachidonic acid; read-out: Potency Range (mean pIC50) (converted). The method in brief:
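PGH2 substrate generated in situ by COX-2 (full-length human, FLAG-tagged, Sf9-expressed) from arachidonic acid at ˜10 μM, then converted by full-length human His-tagged H-PGDS (E. coli-expressed). RapidFire SPE–triple quadrupole MS measured PGD2 against PGF2α as substrate surrogate to give percent conversion.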

Each structure is given as a SMILES string. Structures can show the parent of a compound that is named as a salt. Where only a bound is given, the exact number is not on record here.

T1 sequence (O60760 whole entry): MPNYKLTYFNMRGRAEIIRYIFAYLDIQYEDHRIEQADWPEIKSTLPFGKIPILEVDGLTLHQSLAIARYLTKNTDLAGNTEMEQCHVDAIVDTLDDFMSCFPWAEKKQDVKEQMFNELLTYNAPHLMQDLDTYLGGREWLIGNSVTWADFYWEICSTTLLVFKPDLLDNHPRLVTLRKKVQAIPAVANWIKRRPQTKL

On to `Cc1nnc(NC(=O)[C@H]2C[C@H](Oc3cccc4ccoc34)C2)s1` [Example 266, (trans)-3-(Benzofuran-7-yloxy)-N-(5-methyl-1,3,4-thiadiazol-2-yl)cyclobutanecarboxamide], for which the IC50 is 10 to 79.4 nM.

Turning to `CC(C)(O)[C@H]1CC[C@H](NC(=O)[C@H]2C[C@H](Oc3cccc4ccoc34)C2)CC1` [Example 267, (trans)-3-(Benzofuran-7-yloxy)-N-((trans)-4-(2-hydroxypropan-2-yl)cyclohexyl)cyclobutanecarboxamide], the IC50 was 10 to 79.4 nM.

`CC(C)(O)[C@H]1CC[C@H](NC(=O)[C@H]2C[C@H](Oc3cccc4c3OCC4)C2)CC1` [Example 268, (trans)-3-((2,3-Dihydrobenzofuran-7-yl)oxy)-N-((trans)-4-(2-hydroxypropan-2-yl)cyclohexyl)cyclobutanecarboxamide]: the IC50 is 10 to 79.4 nM.

On to `CC(C)(O)[C@H]1CC[C@H](NC(=O)[C@H]2C[C@H](Oc3cccc4c(Br)coc34)C2)CC1` [Example 269, (trans)-3-((3-Bromobenzofuran-7-yl)oxy)-N-((trans)-4-(2-hydroxypropan-2-yl)cyclohexyl)cyclobutanecarboxamide], for which the IC50 was 10 to 79.4 nM.

Consider `Cc1coc2c(O[C@H]3C[C@H](C(=O)N[C@H]4CC[C@H](C(C)(C)O)CC4)C3)cccc12` [Example 270, (trans)-N-((trans)-4-(2-Hydroxypropan-2-yl)cyclohexyl)-3-((3-methylbenzofuran-7-yl)oxy)cyclobutanecarboxamide], for which the IC50 was 100 to 1000 nM.

As for `CC(=O)c1csc(NC(=O)[C@H]2C[C@H](Oc3cccc4c(Br)coc34)C2)n1` [Example 271, (trans)-N-(4-Acetylthiazol-2-yl)-3-((3-bromobenzofuran-7-yl)oxy)cyclobutanecarboxamide], the IC50 is 10 to 79.4 nM.

On to `CC(=O)c1csc(NC(=O)[C@H]2C[C@H](Oc3cc(Cl)ccc3OC(F)F)C2)n1` [Example 272, (trans)-N-(4-Acetylthiazol-2-yl)-3-(5-chloro-2-(difluoromethoxy)phenoxy)cyclobutanecarboxamide], for which the IC50 is 10 to 79.4 nM.

For the compound `CC(C)(O)[C@H]1CC[C@H](NC(=O)[C@H]2C[C@H](Oc3cc(Cl)ccc3OC(F)F)C2)CC1` [Example 273, (trans)-3-(5-Chloro-2-(difluoromethoxy)phenoxy)-N-((trans)-4-(2-hydroxypropan-2-yl)cyclohexyl)cyclobutanecarboxamide], the IC50 is 10 to 79.4 nM.

Take `COc1ccc(Cl)cc1O[C@H]1C[C@H](C(=O)Nc2nc(C(C)=O)cs2)C1` [Example 274, (trans)-N-(4-Acetylthiazol-2-yl)-3-(5-chloro-2-methoxyphenoxy)cyclobutanecarboxamide]: the IC50 was less than 10 nM.

In the case of `COc1ccc(Cl)cc1O[C@H]1C[C@H](C(=O)N[C@H]2CC[C@H](C(C)(C)O)CC2)C1` [Example 275, (trans)-3-(5-Chloro-2-methoxyphenoxy)-N-((trans)-4-(2-hydroxypropan-2-yl)cyclohexyl)cyclobutanecarboxamide], the IC50 is 10 to 79.4 nM.

Consider `COc1cc(F)ccc1O[C@H]1C[C@H](C(=O)Nc2nc(C(C)=O)cs2)C1` [Example 276, (trans)-N-(4-Acetylthiazol-2-yl)-3-(4-fluoro-2-methoxyphenoxy)cyclobutanecarboxamide], for which the IC50 is 10 to 79.4 nM.

For the compound `COc1cc(F)ccc1O[C@H]1C[C@H](C(=O)N[C@H]2CC[C@H](C(C)(C)O)CC2)C1` [Example 277, (trans)-3-(4-Fluoro-2-methoxyphenoxy)-N-((trans)-4-(2-hydroxypropan-2-yl)cyclohexyl)cyclobutanecarboxamide], the IC50 is 100 to 1000 nM.

Regarding `CC(C)(O)[C@H]1CC[C@H](NC(=O)[C@H]2C[C@H](Oc3ccccc3OC(F)F)C2)CC1` [Example 278, (trans)-3-(2-(Difluoromethoxy)phenoxy)-N-((trans)-4-(2-hydroxypropan-2-yl)cyclohexyl)cyclobutanecarboxamide], the IC50 was 10 to 79.4 nM.

With `CC(=O)c1csc(NC(=O)[C@H]2C[C@H](Oc3ccccc3OC(F)F)C2)n1` [Example 279], the IC50 was 10 to 79.4 nM.

As for `CC(C)(O)[C@H]1CC[C@H](NC(=O)[C@H]2C[C@H](Oc3cccc4cc(F)cnc34)C2)CC1` [Example 280, (trans)-3-((3-Fluoroquinolin-8-yl)oxy)-N-((trans)-4-(2-hydroxypropan-2-yl)cyclohexyl)cyclobutanecarboxamide], the IC50 is 100 to 1000 nM.

Regarding `O=C(Nc1nccs1)[C@H]1C[C@H](Oc2cccc3cc(F)cnc23)C1` [Example 281, (trans)-3-((3-Fluoroquinolin-8-yl)oxy)-N-(thiazol-2-yl)cyclobutanecarboxamide], the IC50 is 10 to 79.4 nM.

On to `CC(C)(O)[C@H]1CC[C@H](NC(=O)[C@H]2C[C@H](Oc3ccccc3Cl)C2)CC1` [Example 282, (trans)-3-(2-Chlorophenoxy)-N-((trans)-4-(2-hydroxypropan-2-yl)cyclohexyl)cyclobutanecarboxamide], for which the IC50 was 100 to 1000 nM.

With `CC(C)(O)[C@H]1CC[C@H](NC(=O)[C@H]2C[C@H](Oc3cc(F)cc(F)c3)C2)CC1` [Example 283, (trans)-3-(3,5-Difluorophenoxy)-N-((trans)-4-(2-hydroxypropan-2-yl)cyclohexyl)cyclobutanecarboxamide], the IC50 was 100 to 1000 nM.

With `COc1ccccc1O[C@H]1C[C@H](C(=O)N[C@H]2CC[C@H](C(C)(C)O)CC2)C1` [Example 284, (trans)-N-((trans)-4-(2-hydroxypropan-2-yl)cyclohexyl)-3-(2-methoxyphenoxy)cyclobutanecarboxamide], the IC50 was 10 to 79.4 nM.

`CCc1cccc(O[C@H]2C[C@H](C(=O)N[C@H]3CC[C@H](C(C)(C)O)CC3)C2)c1` [Example 285, (trans)-3-(3-Ethylphenoxy)-N-((trans)-4-(2-hydroxypropan-2-yl)cyclohexyl)cyclobutanecarboxamide]: the IC50 was 100 to 1000 nM.

With `O=C(Nc1nccs1)[C@H]1C[C@H](Oc2cccc(Cl)c2)C1` [Example 287, (trans)-3-(3-Chlorophenoxy)-N-(thiazol-2-yl)cyclobutanecarboxamide], the IC50 is 10 to 79.4 nM.

Consider `CC(C)(O)[C@H]1CC[C@H](NC(=O)[C@H]2C[C@H](Oc3cccc(Cl)c3)C2)CC1` [Example 288, (trans)-3-(3-Chlorophenoxy)-N-((trans)-4-(2-hydroxypropan-2-yl)cyclohexyl)cyclobutanecarboxamide], for which the IC50 was 100 to 1000 nM.

In the case of `CC(C)(O)[C@H]1CC[C@H](NC(=O)[C@H]2C[C@H](Oc3cccc(F)c3)C2)CC1` [Example 289, (trans)-3-(3-Fluorophenoxy)-N-((trans)-4-(2-hydroxypropan-2-yl)cyclohexyl)cyclobutanecarboxamide], the IC50 is 100 to 1000 nM.

For the compound `CC(C)(O)[C@H]1CC[C@H](NC(=O)[C@H]2C[C@H](Oc3cc(F)cc(Cl)c3)C2)CC1` [Example 290, (trans)-3-(3-Chloro-5-fluorophenoxy)-N-((trans)-4-(2-hydroxypropan-2-yl)cyclohexyl)cyclobutanecarboxamide], the IC50 was 100 to 1000 nM.

`O=C(Nc1nccs1)[C@H]1C[C@H](Oc2ccc(F)c3cccnc23)C1` [Example 291, (trans)-3-((5-Fluoroquinolin-8-yl)oxy)-N-(thiazol-2-yl)cyclobutanecarboxamide, trifluoroacetic acid salt]: the IC50 was 100 to 1000 nM.

Consider `CC(C)(O)[C@H]1CC[C@H](NC(=O)[C@H]2C[C@H](Oc3ccc(F)c4cccnc34)C2)CC1` [Example 292, (trans)-3-((5-Fluoroquinolin-8-yl)oxy)-N-((trans)-4-(2-hydroxypropan-2-yl)cyclohexyl)cyclobutanecarboxamide], for which the IC50 is 100 to 1000 nM.

As to `CC(C)(O)[C@H]1C[C@H](NC(=O)[C@H]2C[C@H](Oc3cc(F)cc4cccnc34)C2)C1` [Example 293, (trans)-3-((6-Fluoroquinolin-8-yl)oxy)-N-((trans)-3-(2-hydroxypropan-2-yl)cyclobutyl)cyclobutanecarboxamide], the IC50 was 100 to 1000 nM.

As to `O=C(Nc1nccs1)[C@H]1C[C@H](Oc2cc(F)cc3cccnc23)C1` [Example 294, (trans)-3-((6-Fluoroquinolin-8-yl)oxy)-N-(thiazol-2-yl)cyclobutanecarboxamide], the IC50 was 10 to 79.4 nM.

With `CC(C)(O)[C@H]1CC[C@H](NC(=O)[C@H]2C[C@H](Oc3cc(F)cc4cccnc34)C2)CC1` [Example 295, (trans)-3-((6-Fluoroquinolin-8-yl)oxy)-N-((trans)-4-(2-hydroxypropan-2-yl)cyclohexyl)cyclobutanecarboxamide], the IC50 was 10 to 79.4 nM.

As for `CC(C)(O)[C@H]1CC[C@H](NC(=O)[C@H]2C[C@H](Oc3cccc4cncnc34)C2)CC1` [Example 296, (trans)-N-((trans)-4-(2-Hydroxypropan-2-yl)cyclohexyl)-3-(quinazolin-8-yloxy)cyclobutanecarboxamide], the IC50 is 100 to 1000 nM.

Consider `O=C(Nc1nccs1)[C@H]1C[C@H](Oc2cccc3[nH]cnc23)C1` [Example 297, (trans)-3-((1H-Benzo[d]imidazol-4-yl)oxy)-N-(thiazol-2-yl)cyclobutanecarboxamide, di-trifluoroacetic acid salt], for which the IC50 was 100 to 1000 nM.

Regarding `CC(C)(O)[C@H]1CC[C@H](NC(=O)[C@H]2C[C@H](Oc3cccn4ccnc34)C2)CC1` [Example 298, (trans)-N-((trans)-4-(2-Hydroxypropan-2-yl)cyclohexyl)-3-(imidazo[1,2-a]pyridin-8-yloxy)cyclobutanecarboxamide], the IC50 was 100 to 1000 nM.

For `CC(C)(O)[C@H]1CC[C@H](NC(=O)N2CC(Oc3cccc4sncc34)C2)CC1` [Example 299, 3-(Benzo[d]isothiazol-4-yloxy)-N-((trans)-4-(2-hydroxypropan-2-yl)cyclohexyl)azetidine-1-carboxamide], the IC50 was 100 to 1000 nM.
